Results: EP1268487B1, “TRICYCLIC PROTEIN KINASE INHIBITORS” (Wyeth, priority 2000, dated 2001)

Biological target: T1, p60^c-src (Homo sapiens, UniProt P12931)
T1 construct: purchased Upstate Biotechnologies
Assay: Src kinase assay (ELISA format)
Type: biochemical
Experimental: Inhibitors of p60^c-src (partially purified preparation purchased from Upstate Biotechnologies) tyrosine kinase activity are analyzed in an ELISA format. The Boehringer Mannheim Tyrosine Kinase Assay Kit (Catalog number 1-534505) with a cdc2 substrate peptide containing Tyr15 is used for the assay. HRP-conjugated anti-phosphotyrosine is used to detect phosphorylated peptide via a color reaction. Conditions recommended by the manufacturer are employed.
Reaction conditions: Five microliter aliquots of each compound prepared fresh at the time of the assay are added as a solution in 10mM HEPES pH 7.5, 10% DMSO to the reaction well. Thirty-five microliters of reaction mix containing Src, buffer and peptide/bovine serum albumin mix are added to the compound wells and incubated at 30°C for 10 minutes (reaction buffer: 50mM TrisHCl pH 7.5, 10mM MgCl2, 0.1mM EGTA, 0.5mM Na3VO4). The reaction is started by addition of 10 microliters of ATP, incubated at 30°C for 1 hour, and stopped by addition of 20 microliters of 0.5M EDTA. The reaction mixture with the phosphorylated peptide was then transferred to a streptavidin-coated microtiter plate (provided in the kit) and allowed to bind for 20 minutes. […] Substrate (provided in the kit) was added and absorbance at 405nm was measured.
Activity was determined as % inhibition as calculated by the formula: (1 - Abs/Abs(max)) x 100 = % inhibition. […]

T1 sequence (P12931 whole entry): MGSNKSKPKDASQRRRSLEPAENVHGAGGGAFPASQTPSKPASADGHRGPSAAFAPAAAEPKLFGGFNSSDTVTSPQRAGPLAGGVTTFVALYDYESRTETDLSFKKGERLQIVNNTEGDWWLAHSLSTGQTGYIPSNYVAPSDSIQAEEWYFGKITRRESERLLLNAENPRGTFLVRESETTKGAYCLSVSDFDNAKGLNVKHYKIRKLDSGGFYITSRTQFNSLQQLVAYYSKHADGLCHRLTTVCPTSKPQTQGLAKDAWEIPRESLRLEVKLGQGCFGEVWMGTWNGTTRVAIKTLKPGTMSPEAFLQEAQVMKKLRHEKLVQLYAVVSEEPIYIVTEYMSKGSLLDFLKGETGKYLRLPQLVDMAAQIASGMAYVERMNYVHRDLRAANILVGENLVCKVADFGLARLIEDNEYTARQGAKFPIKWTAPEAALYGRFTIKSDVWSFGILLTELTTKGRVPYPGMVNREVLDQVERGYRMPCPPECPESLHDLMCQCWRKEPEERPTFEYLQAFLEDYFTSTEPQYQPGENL

## CCN1CCN(CCCCN2CCOc3cc4c(Nc5ccc(Cl)cc5Cl)c(C#N)cnc4cc32)CC1 [Example 24, 9-(2,4-Dichloroanilino)-4-[4-(4-ethyl-1-piperazinyl)butyl]-3,4-dihydro-2H-[1,4]oxazino[2,3-g]quinoline-8-carbonitrile]
  IC50: 1010 nM
